Results on eight compounds are retold here after patent US8158828B2, “Nuclear receptor binding agents” (priority 2005, dated 2012).

The structures appear in SMILES notation.

One test concerns the target T1, ER-α (Rattus norvegicus, UniProt P06211).
T1 sequence (P06211 1-600): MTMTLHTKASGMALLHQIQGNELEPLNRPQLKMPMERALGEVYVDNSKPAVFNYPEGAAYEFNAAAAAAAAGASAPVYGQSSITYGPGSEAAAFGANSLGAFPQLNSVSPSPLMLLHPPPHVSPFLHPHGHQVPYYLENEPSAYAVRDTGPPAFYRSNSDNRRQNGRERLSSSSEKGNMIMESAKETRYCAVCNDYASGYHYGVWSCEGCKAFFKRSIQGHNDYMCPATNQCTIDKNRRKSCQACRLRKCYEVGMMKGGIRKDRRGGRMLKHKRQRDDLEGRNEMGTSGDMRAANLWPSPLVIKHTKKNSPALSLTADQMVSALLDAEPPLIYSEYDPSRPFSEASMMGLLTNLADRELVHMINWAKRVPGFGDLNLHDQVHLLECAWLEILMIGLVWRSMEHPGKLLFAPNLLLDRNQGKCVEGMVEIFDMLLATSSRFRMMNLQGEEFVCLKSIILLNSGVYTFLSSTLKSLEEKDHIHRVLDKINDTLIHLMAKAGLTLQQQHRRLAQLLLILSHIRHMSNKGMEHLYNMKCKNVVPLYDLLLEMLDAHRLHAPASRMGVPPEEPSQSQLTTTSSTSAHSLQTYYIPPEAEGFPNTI
The test is described as follows: ER-α transactivation, ERE-LUC in COS or 293 cells. Set-up: % estardiol activity, ER-α: dose or concentration left out as unconfirmed. The class given is cell-based. How it is done: FIG. 1: Effects of the indicated compounds on ER-α transactivation. COS or 293 cells plated in DME without phenol red+10% charcoal stripped fetal bovine serum (csFBS) at 90,000 cells per well of 24 well plates were transfected with 0.25 μg ERE-LUC, 0.02 μg CMV-LUC (Renilla) and 25 ng of ER-α by lipofectamine. Twenty four hours after transfection, the cells were treated as indicated in the figure, harvested 48 hrs after transfection and were assayed for firefly and renilla luciferase.
FIG. 5: Effect of the indicated compounds on ER-α transactivation. COS or 293 cells plated in DME without phenol red+10% csFBS at 90,000 cells per well of a 24 well plate were transfected with 0.25 μg ERE-LUC, 0.02 μg CMV-LUC (Renilla) and […] of ER-α by lipofectamine. Twenty four hours after transfection, the cells were treated as indicated in the figure, harvested 48 hrs after transfection and were assayed for firefly and renilla luciferase.
FIG. 9: Effect of the indicated compounds on ER-α transactivation. COS or 293 cells plated in DME without phenol red+10% csFBS per well of a 24 well plate were transfected with 0.25 μg ERE-LUC, 0.02 μg CMV-LUC (Renilla) and 25 ng of ER-α by lipofectamine. Twenty four hours after transfection, the cells were treated as indicated in the figure, harvested 48 hrs after transfection and were assayed for firefly and renilla luciferase.
Also 25 ng of ER-α (FIGS. 1, 5, and 9), 50 ng of ER-β (FIGS. 2, 6 and 10) or 12.5 ng of AR (FIG. 3) were introduced by lipofectamine. All the receptors were cloned from rat tissue into the PCR3.1 vector backbone. […] Cells were harvested 48 hrs after transfection, and assayed for firefly and Renilla luciferase activity.
Also 25 ng of ER-α), 50 ng of ER-β or 12.5 ng of AR were introduced by lipofectamine. All the receptors were cloned from rat tissue into the PCR3.1 vector backbone. […] Cells were harvested 48 hrs after transfection, and assayed for firefly and Renilla luciferase activity.

Test [1] has as its system TRAP positive multinucleated osteoclasts. The test is described as follows: TRAP positive multinucleated osteoclasts from bone marrow cells. It is filed as cell-based, rat. As to conditions: RANKL and GMCSF, 12 days. How it is done:
FIG. 7: Effect of the indicated compounds on TRAP positive multinucleated osteoclasts. Bone marrow cells from rat femur was cultured in Alpha MEM+10% csFBS without phenol red in the presence or absence of 30 ng/ml RANKL and 10 ng/ml GMCSF. The cells were treated for 12 days and were stained for tartarate resistant acid phosphatase activity (TRAP) and multinucleated osteoclasts were counted.
Bone marrow cells isolated from rat femur were cultured in Alpha MEM without phenol red+10% sterile FBS without phenol red in the presence or absence of […] RANKL and 10 ng/ml GMCSF. The cells were treated for 12 days were stained for tartarate resistant acid phosphatase activity (TRAP) positive multinucleated osteoclasts and were counted.

The test system of another test is osteoblasts. The test is described as follows: Osteoblast activity. The class given is cell-based.
In the next test the test system is uterus. In words: In vivo estrogenic activity, uterine weight. Also noted: species or system rat. As to conditions: female rats, compound alone. How it is done: Rats that were administered the vehicle alone served as controls.
A further test concerns the target T2, ER-β (Rattus norvegicus, UniProt Q62986).
T2 construct: expressed in transfected cells; host or cells: COS or 293 cells
The test is described as follows: ER-β transactivation, ERE-LUC in COS or 293 cells. The following applies: COS or 293 cells. It is filed as cell-based. How it is done: FIG. 2: Effect of the indicated compounds on ER-β transactivation. COS or 293 cells plated in DME without phenol red+10% csFBS at 90,000 cells per well of a 24 well plate were transfected with 0.25 μg ERE-LUC, 0.02 μg CMV-LUC (Renilla) and 50 ng of ER-β by lipofectamine. Twenty four hours after transfection, the cells were treated as indicated in the figure, harvested 48 hrs after transfection and were assayed for firefly and renilla luciferase.
FIG. 6: Effect of the indicated compounds on ER-β transactivation. COS or 293 cells plated in DME without phenol red+10% csFBS at 90,000 cells per well of a 24 well plate were transfected with 0.25 μg ERE-LUC, 0.02 μg CMV-LUC (Renilla) and 50 ng of ER-β by lipofectamine. Twenty four hours after transfection, the cells were treated as indicated in the figure, harvested 48 hrs after transfection and assayed for firefly and renilla luciferase.
FIG. 10: Effect of the indicated compounds on ER-β transactivation. COS or 293 cells plated in DME+10% csFBS at 90,000 cells per well of a 24 well plate were transfected with 0.25 μg ERE-LUC, 0.02 μg CMV-LUC (Renilla) and 50 ng of ER-β by lipofectamine. Twenty four hours after transfection, the cells were treated as indicated in the figure, harvested 48 hrs after transfection and were assayed for firefly and renilla luciferase.
(§1) All the receptors were cloned from rat tissue into the PCR3.1 vector backbone. […] Cells were harvested 48 hrs after transfection, and assayed for firefly and Renilla luciferase activity.
as §1

The test system of test [2] is pS2 (gene encoding the trefoil peptides) in MCF-7 cells. In words: pS2 gene expression in MCF-7 cells (realtime RT-PCR). As to conditions: 16 hrs. It is filed as cell-based. How it is done:
MCF-7 cells were plated at 500,000 cells per well of a 6 well plate. RNA was isolated and the message levels of pS2 (gene encoding the trefoil peptides) measured and normalized to 18S ribosomal RNA by realtime polymerase chain reaction (rtPCR).
FIG. 11: Agonistic activity of the indicated compounds in MCF-7 cells. MCF-7 cells were plated at 500,000 cells per well of a 6 well plate. RNA was isolated and the message levels of pS2 gene measured and normalized to 18S ribosomal RNA by realtime rtPCR.
MCF-7 cells were plated at 500,000 cells per well of a 6 well plate. The cells were serum starved for 3 days and then were treated as above for 16 hrs. RNA was isolated and gene expression levels assessed by realtime RT-PCR, following normalization to 18S ribosomal RNA.

The test system of a further test is PC-3 cells. In words: Androgen independent prostate cancer cell growth. The class given is cell-based. The following applies: for PC-3 growth inhibition, qualitative grading: in vitro, data not shown. On the procedure:
PC-3 cells were plated in RPMI+10% csFBS at 6000 cells per well of a 96 well plate. Medium was changed to RPMI+1% csFBS without phenol red and then treated for 72 hrs with increasing concentrations of SERMs.
The prostate cancer cell line PC-3 was plated in RPMI+10% csFBS at 6000 cells per well of a 96 well plate. Medium was changed to RPMI+1% csFBS without phenol red and cells were treated for 72 hrs with increasing concentrations of SERMs.
PC-3 growth inhibition was determined qualitatively, in vitro, and represented as a grading system based on the ability of the SERMs to inhibit growth. The number −4 is for compounds that induced 100% growth inhibition at 1 uM, −3 for compounds that inhibit growth by about 75-90%, −2 for about 50-70% and −1 for inhibition less than 50% growth.

The next test relates to CCRF/CEM. The following applies: estrogen receptor-negative cell line; cited from earlier work.
The conditions of test [3]: rats; cited from earlier work.
The format of test [4] is in vivo, human. As to conditions: 80 mg/day.
[5] abbreviates: baseline to month 12, compared to placebo.

T2 sequence (Q62986 whole entry): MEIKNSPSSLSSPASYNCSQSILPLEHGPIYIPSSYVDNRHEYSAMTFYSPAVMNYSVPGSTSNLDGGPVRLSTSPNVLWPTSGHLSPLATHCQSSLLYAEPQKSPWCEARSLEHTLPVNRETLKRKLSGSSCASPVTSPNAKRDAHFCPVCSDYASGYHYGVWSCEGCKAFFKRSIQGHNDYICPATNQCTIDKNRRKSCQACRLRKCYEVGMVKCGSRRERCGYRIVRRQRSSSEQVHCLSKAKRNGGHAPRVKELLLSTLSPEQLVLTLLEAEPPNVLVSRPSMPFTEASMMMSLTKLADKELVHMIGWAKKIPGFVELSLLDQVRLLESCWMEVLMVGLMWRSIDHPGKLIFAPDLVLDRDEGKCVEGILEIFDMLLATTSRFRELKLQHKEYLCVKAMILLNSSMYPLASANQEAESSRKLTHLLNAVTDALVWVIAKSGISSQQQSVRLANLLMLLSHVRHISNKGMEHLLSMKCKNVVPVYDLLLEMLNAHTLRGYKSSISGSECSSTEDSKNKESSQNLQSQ

As to `O=C(c1ccccc1)N(c1ccc(O)cc1)c1ccc(O)cc1` [Compound 3d, N,N-bis-(4-hydroxyphenyl)-benzamide], the “% estardiol activity, ER-α” value on ER-α stood at 48%. In test [1], the “osteoclast differentiation / osteoclast activity” value is reported as “suppressed osteoclasts”. In the test on osteoblasts, the osteoblast activity entry is listed as “stimulated osteoblasts”. In the test with uterus, the “estrogenic activity in terms of uterine weight” value (from here on “estrogenic activity in terms”) was “exhibited estrogenic activity, in terms of increased uterine weight”.
Turning to `O=C(c1ccc(O)cc1)N(c1ccccc1)c1ccccc1` [Compound 3e, 4-hydroxy-N,N-diphenyl-benzamide], the “% estardiol activity, ER-α” value on ER-α is given as 133%. In addition, at ER-α (COS or 293 cells), the “ER-α activity (luciferase expression), compound alone” value is reported as “most potent in stimulating ER-α”. In addition, the “ER-β LUC expression, compound alone” value on ER-β is reported as “most potent in stimulating ER-β”. For the same compound, the pS2 expression entry in test [2] is recorded as “increased pS2 expression levels”. Also, in [1], the “osteoclast differentiation / osteoclast activity” value is recorded as “highly suppressive of osteoclast activity”. In the test on osteoblasts, the osteoblast activity result is “stimulated osteoblast activity”. Besides, the “estrogenic activity in terms” value in the test on uterus is “exhibited no estrogenic, or anti-estrogenic activity in uterus”.
Regarding `O=S(=O)(c1ccc(O)cc1)N(c1ccccc1)c1ccccc1` [Compound 3l, 4-hydroxy-N,N-diphenyl-phenyl-sulfonamide], the pS2 expression entry in test [2] is “increased pS2 expression levels”. Also, the “PC-3 growth inhibition, qualitative grading” value in the test with PC-3 cells is recorded as −2 (−2 for about 50-70%). The “estrogenic activity in terms” value in the test on uterus is on record as “exhibited no estrogenic, or anti-estrogenic activity in uterus”.
With `CCN(CC)CCOc1ccc(C(=C(Cl)c2ccccc2)c2ccccc2)cc1` [clomiphene], in the test on CCRF/CEM, the “viability of CCRF/CEM cells” value is “cause a decrease in viability”.
As for `C[C@]12CC[C@@H]3c4ccc(O)cc4CC[C@H]3[C@@H]1CC[C@@H]2O` [estrogen, Estradiol, reference compound], in [2], the pS2 expression result is reported as “increased pS2”. The “osteoclast differentiation / osteoclast activity” value in test [1] is “strongly suppressed osteoclast differentiation”. Also, in [3], the “incidence of lipo-polysaccharide induced inflammatory responses” value was “reduce the incidence of lipo-polysacharride induced inflammatory responses”.
Consider `COc1ccc2c(c1)CCC(c1ccccc1)=C2c1ccc(OCCN2CCCC2)cc1` [nafoxidine], for which the “viability of CCRF/CEM cells” value with CCRF/CEM is listed as “cause a decrease in viability”.
Turning to `CC/C(=C(\c1ccccc1)c1ccc(OCCN(C)C)cc1)c1ccccc1` [tamoxifen], in the test on CCRF/CEM, the “viability of CCRF/CEM cells” value is given as “cause a decrease in viability”. In addition, the “incidence of lipo-polysaccharide induced inflammatory responses” value in [3] is reported as “reduce the incidence of lipo-polysacharride induced inflammatory responses”.
What is called inhibition is the change of the read-out against control, counted positive when it falls. As for `CN(C)CCOc1ccc(/C(=C(/CCCl)c2ccccc2)c2ccccc2)cc1` [toremifene], the “osteoclast differentiation / osteoclast activity” value in test [1] is recorded as “minimally but dose-dependently suppressed the osteoclast differentiation”. In the test on PC-3 cells (Homo sapiens, PC-3, 10 μM, 72 hrs), the inhibition at 10 µM was found to be 100%. In the test with PC-3 cells, the “PC-3 growth inhibition, qualitative grading” value is recorded as −2 (−2 for about 50-70%). Besides, the “serum lipid parameters overall” value in [4] is recorded as “statistically significant improvement in all serum lipid parameters measured”. Also, in test [4] (setting [5]), the “change in HDL levels” value was “+5.4%”, the “change in LDL” value is given as −9.0%, the “change in total circulating cholesterol” value is given as −7.1% and the “change in triglyceride levels” value was −20.1%.
